The text below walks through data of BindingDB's records for doi:10.1016/S0960-894X(96)00249-1 (1996).

Experiment [1] can be described thus: Inhibitory activity against gastrin receptor.
Experiment [2] deals with T1, Gastrin/cholecystokinin type B receptor (Homo sapiens, UniProt P32239).
T1 sequence (P32239 whole entry): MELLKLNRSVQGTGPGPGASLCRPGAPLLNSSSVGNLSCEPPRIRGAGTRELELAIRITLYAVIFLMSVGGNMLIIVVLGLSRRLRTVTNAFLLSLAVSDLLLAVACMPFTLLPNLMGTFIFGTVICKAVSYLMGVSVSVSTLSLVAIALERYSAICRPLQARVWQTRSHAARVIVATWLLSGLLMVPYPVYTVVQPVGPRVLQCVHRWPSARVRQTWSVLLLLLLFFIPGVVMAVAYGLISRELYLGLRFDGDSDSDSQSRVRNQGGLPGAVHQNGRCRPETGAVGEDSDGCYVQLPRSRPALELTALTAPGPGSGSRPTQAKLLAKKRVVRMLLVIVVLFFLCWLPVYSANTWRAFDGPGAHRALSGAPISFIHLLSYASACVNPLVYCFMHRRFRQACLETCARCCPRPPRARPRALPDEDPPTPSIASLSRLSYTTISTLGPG
In words: ChEBML_71518.

For the molecule `Cc1cccc(NC(=O)N[C@@H]2N=C(c3ccccc3)c3ccccc3N(CCOC(=O)NCCCC(=O)NCCSCc3csc(CC(=N)N)n3)C2=O)c1` [(3-{2-[2-(2,2-Diamino-vinyl)-thiazol-4-ylmethylsulfanyl]-ethylcarbamoyl}-propyl)-carbamic acid 2-[(R)-2-oxo-5-phenyl-3-(3-m-tolyl-ureido)-2,3-dihydro-benzo[e][1,4]diazepin-1-yl]-ethyl ester], the IC50 in experiment [1] was determined as 17 nM.

In experiment [1], `CN1C(=O)[C@H](NC(=O)Nc2cccc(CCOC(=O)NCCCNCCSCc3csc(CC(=N)N)n3)c2)N=C(c2ccccc2)c2ccccc21` [(3-{2-[2-(2,2-Diamino-vinyl)-thiazol-4-ylmethylsulfanyl]-ethylamino}-propyl)-carbamic acid 2-{3-[3-((R)-1-methyl-2-oxo-5-phenyl-2,3-dihydro-1H-benzo[e][1,4]diazepin-3-yl)-ureido]-phenyl}-ethyl ester] registered a half-inhibitory concentration (IC50) of 37 nM.

Regarding `CN1C(=O)[C@H](NC(=O)Nc2cccc(COC(=O)NCCNC(=O)CC(=O)NCCCOc3cccc(CN4CCCCC4)c3)c2)N=C(c2ccccc2)c2ccccc21` [(2-{2-[3-(3-Piperidin-1-ylmethyl-phenoxy)-propylcarbamoyl]-acetylamino}-ethyl)-carbamic acid 3-[3-((R)-1-methyl-2-oxo-5-phenyl-2,3-dihydro-1H-benzo[e][1,4]diazepin-3-yl)-ureido]-benzyl ester], in experiment [1], the 50% inhibitory concentration (IC50) stood at 19 nM.

The molecule `CN1C(=O)[C@H](NC(=O)Nc2cccc(COC(=O)NCCN3CCN(C(=O)CNCCCOc4cccc(CN5CCCCC5)c4)CC3)c2)N=C(c2ccccc2)c2ccccc21` [[2-(4-{2-[3-(3-Piperidin-1-ylmethyl-phenoxy)-propylamino]-acetyl}-piperazin-1-yl)-ethyl]-carbamic acid 3-[3-((R)-1-methyl-2-oxo-5-phenyl-2,3-dihydro-1H-benzo[e][1,4]diazepin-3-yl)-ureido]-benzyl ester] yielded a 50% inhibitory concentration (IC50) in experiment [1] of 7 nM.

As for `CN1C(=O)[C@H](NC(=O)Nc2cccc(COC(=O)NCCCC(=O)NCCCOc3cccc(CN4CCCCC4)c3)c2)N=C(c2ccccc2)c2ccccc21` [{3-[3-(3-Piperidin-1-ylmethyl-phenoxy)-propylcarbamoyl]-propyl}-carbamic acid 3-[3-((R)-1-methyl-2-oxo-5-phenyl-2,3-dihydro-1H-benzo[e][1,4]diazepin-3-yl)-ureido]-benzyl ester], in experiment [1], the half-inhibitory concentration (IC50) came to 26 nM.

The molecule `CN1C(=O)[C@H](NC(=O)Nc2cccc(CCOC(=O)NCCCC(=O)NCCCOc3cccc(CN4CCCCC4)c3)c2)N=C(c2ccccc2)c2ccccc21` [{3-[3-(3-Piperidin-1-ylmethyl-phenoxy)-propylcarbamoyl]-propyl}-carbamic acid 2-{3-[3-((R)-1-methyl-2-oxo-5-phenyl-2,3-dihydro-1H-benzo[e][1,4]diazepin-3-yl)-ureido]-phenyl}-ethyl ester] registered a 50% inhibitory concentration (IC50) in experiment [1] of 23 nM.

In the case of `CN1C(=O)[C@H](NC(=O)Nc2cccc(CCOC(=O)NCCC(=O)NCCCOc3cccc(CN4CCCCC4)c3)c2)N=C(c2ccccc2)c2ccccc21` [{2-[3-(3-Piperidin-1-ylmethyl-phenoxy)-propylcarbamoyl]-ethyl}-carbamic acid 2-{3-[3-((R)-1-methyl-2-oxo-5-phenyl-2,3-dihydro-1H-benzo[e][1,4]diazepin-3-yl)-ureido]-phenyl}-ethyl ester], in experiment [1], 27 nM corresponded to half-maximal inhibition (IC50).

On to `CN1C(=O)[C@H](NC(=O)Nc2cccc(COC(=O)NCCCN3CCN(C(=O)CNCCCOc4cccc(CN5CCCCC5)c4)CC3)c2)N=C(c2ccccc2)c2ccccc21` [[3-(4-{2-[3-(3-Piperidin-1-ylmethyl-phenoxy)-propylamino]-acetyl}-piperazin-1-yl)-propyl]-carbamic acid 3-[3-((R)-1-methyl-2-oxo-5-phenyl-2,3-dihydro-1H-benzo[e][1,4]diazepin-3-yl)-ureido]-benzyl ester], for which it took 9 nM to reach half-maximal inhibition in experiment [1] (IC50).

In the case of `Cc1cccc(NC(=O)N[C@@H]2N=C(c3ccccc3)c3ccccc3N(CCOC(=O)NCCCC(=O)NCCCOc3cccc(CN4CCCCC4)c3)C2=O)c1` [{3-[3-(3-Piperidin-1-ylmethyl-phenoxy)-propylcarbamoyl]-propyl}-carbamic acid 2-[(R)-2-oxo-5-phenyl-3-(3-m-tolyl-ureido)-2,3-dihydro-benzo[e][1,4]diazepin-1-yl]-ethyl ester], in experiment [1], the midpoint of inhibition, the IC50, lay at 135 nM.

In the case of `Cc1cccc(NC(=O)N[C@@H]2N=C(c3cccc(OC(=O)NCCCC(=O)NCCSCc4csc(CC(=N)N)n4)c3)c3ccccc3N(C)C2=O)c1` [(3-{2-[2-(2,2-Diamino-vinyl)-thiazol-4-ylmethylsulfanyl]-ethylcarbamoyl}-propyl)-carbamic acid 3-[(R)-1-methyl-2-oxo-3-(3-m-tolyl-ureido)-2,3-dihydro-1H-benzo[e][1,4]diazepin-5-yl]-phenyl ester], the IC50 in experiment [1] is > 1000 nM.

The molecule `CN1C(=O)[C@H](NC(=O)Nc2cccc(COC(=O)NCCC(=O)NCCCOc3cccc(CN4CCCCC4)c3)c2)N=C(c2ccccc2)c2ccccc21` [{2-[3-(3-Piperidin-1-ylmethyl-phenoxy)-propylcarbamoyl]-ethyl}-carbamic acid 3-[3-((R)-1-methyl-2-oxo-5-phenyl-2,3-dihydro-1H-benzo[e][1,4]diazepin-3-yl)-ureido]-benzyl ester] had a half-maximal inhibitory concentration (IC50) in experiment [1] of 36 nM.

In experiment [1], `CN1C(=O)[C@H](NC(=O)Nc2cccc(COC(=O)NCC(=O)NCCCOc3cccc(CN4CCCCC4)c3)c2)N=C(c2ccccc2)c2ccccc21` [{[3-(3-Piperidin-1-ylmethyl-phenoxy)-propylcarbamoyl]-methyl}-carbamic acid 3-[3-((R)-1-methyl-2-oxo-5-phenyl-2,3-dihydro-1H-benzo[e][1,4]diazepin-3-yl)-ureido]-benzyl ester] gave an IC50 of 11 nM.

Take `Cc1cccc(NC(=O)N[C@@H]2N=C(c3cccc(OC(=O)NCCCC(=O)NCCCOc4cccc(CN5CCCCC5)c4)c3)c3ccccc3N(C)C2=O)c1` [{3-[3-(3-Piperidin-1-ylmethyl-phenoxy)-propylcarbamoyl]-propyl}-carbamic acid 3-[(R)-1-methyl-2-oxo-3-(3-m-tolyl-ureido)-2,3-dihydro-1H-benzo[e][1,4]diazepin-5-yl]-phenyl ester]: the IC50 in experiment [1] was determined as 220 nM.

`CN1C(=O)[C@H](NC(=O)Nc2cccc(COC(=O)NCNC(=O)CC(=O)NCCSCc3csc(CC(=N)N)n3)c2)N=C(c2ccccc2)c2ccccc21` [[(2-{2-[2-(2,2-Diamino-vinyl)-thiazol-4-ylmethylsulfanyl]-ethylcarbamoyl}-acetylamino)-methyl]-carbamic acid 3-[3-((R)-1-methyl-2-oxo-5-phenyl-2,3-dihydro-1H-benzo[e][1,4]diazepin-3-yl)-ureido]-benzyl ester] displayed an IC50 in experiment [2] of 4 nM.
